{
  "source": "patent US20080207632A1",
  "about": "“PROTEIN KINASE INHIBITORS” (SUPERGEN, INC., priority 2006, published 2008)",
  "key": {"TT (medullary thyroid)": {"system": "TT (medullary thyroid)", "assay": "in vitro cytotoxicity assay (Cell-Titer-Glo), TT", "type": "cell-based", "procedure": "(§1) To evaluate cell killing of cancer cell lines, an in vitro cytotoxicity assay was performed. The tumor cell lines used were purchased from the American Type Culture Collection, and are identified as follows: Panc-1 (pancreas), MiaPaCa-2 (pancreas), MCF-7 (breast), HT-29 (colon), U2-OS (osteosarcoma), OVCAR-3 (ovary), HepG2 (hepatocellular carcinoma) and TT (medullary thyroid). The assay utilized the Cell-Titer-Glo Non-Radioactive Cell Proliferation Assay (Promega Corp., Madison, Wis.). First the cells were cultured in RPMI 1640 medium (Cat# 21870-076, Invitrogen Corporation) supplemented with 300 mg/L L-glutamine, 100 units/ml penicillin, 100 μg/ml streptomycin and 10% fetal bovine serum. All the cell lines were incubated in a humidified incubator at 37° C. with 5% CO2 atmosphere.\nCells were plated at a density of 2000 to 10000 cells per well, depending on their growth rate, in 0.09 mL medium on day 0 in 96-well Microlite TCT microtiter plates (7418, Thermo Labsystems, Franklin, Mass.). On day 1, 10 μL of serial dilutions of the individual compounds were added to the plates in replicates of 3. After incubation for 4 days at 37° C. in a humidified incubator, the cells were lysed in the Cell-Titer-Glo reagent, which also contains luciferase enzyme. The luciferase reaction utilizes ATP released from lysed cells to produce light, the intensity of which is linearly related to the amount of ATP. Thus, the amount of light produced is a reflection of the number of cells remaining in the well after drug treatment. This luminescence was measured using a Luminoskan luminometer (Thermo Electron Corp., Vantaa, Finland) Data were expressed as the percentage of survival of control cells calculated from the luminescence corrected for background. The surviving percent of cells was determined by dividing the mean luminescence values of the treated wells by the mean luminescence values of the control and multiplying by 100.\nas §1, with “Briefly,” for “To evaluate cell killing of cancer cell lines, an in vitro cytotoxicity assay was performed. The”, “thyroid), PC-3 (prostate) and A549 (lung).” for “thyroid).”\nCell culture-based assays can be used to evaluate the ability of compounds of the invention to inhibit one or more cellular activities, such as cancer cell growth and/or survival. Numerous cancer cell lines can be obtained from the American Type Culture Collection (ATCC) and other sources. Briefly, cells are seeded into 96-well, tissue-culture treated, opaque white plates (Thermo Electron, Vantaa, Finland), at between 5000 and 10000 cells per well, depending on the speed of cell proliferation, in 100 μl of appropriate growth medium (determined by the ATCC). Cells are then exposed to the appropriate concentration of drug or an equal amount of DMSO (drug diluent) and allowed to grow in its presence for 96 hours. Following this, 100 μl of Cell-Titer-Glo reagent (Promega, Inc., Madison, Wis.) is added to each well. Plates are then shaken for 2 minutes at room temperature to allow for cell lysis and incubated for 10 minutes to stabilize the luminescent signal. Similar to the Kinase-Glo assay reagent from Promega, this reagent contains both luciferase enzyme and its substrate luciferin. Luciferase, activated by ATP in the cell lysate, catalyzes the conversion of luciferin to oxyluciferin, a reaction which produces light. […]"}, "[1]": {"system": "HepG2 (hepatocellular carcinoma)", "assay": "in vitro cytotoxicity assay (Cell-Titer-Glo), HepG2", "type": "cell-based", "conditions": "Homo sapiens, Table 10, 96 hours, read-out: IC50 HepG2 (inhibit cell growth to 50% of untreated)"}, "DU145 carcinoma": {"system": "DU145 carcinoma", "assay": "DU145 prostate cancer xenograft", "type": "in vivo", "procedure": "In this study, DU145 carcinoma model was used to evaluate the anti-tumor efficacy of compound 2-3. The murine xenograft model was established by inoculating 2×10^6 cells into each Balb/c nude mouse via s.c. injection. When the average tumor size reached ˜100 mm^3, the mice were randomly divided into different experimental groups based on tumor size. Subcutaneous administration of compound 2-3 was conducted via an Alzet osmotic pump. On day 30 a second cycle of dosing was initiated."}, "[2]": {"system": "HT-29 human colon cancer cells", "assay": "HT-29 xenograft study in mice (Example 57)", "type": "in vivo", "conditions": "5 mg/kg IP, QDx5 for three weeks", "procedure": "In order to evaluate the effectiveness of compound 2-5 against tumor cells in a living system, a xenograft study was performed in mice. 1×10^7 HT-29 human colon cancer cells were injected subcutaneously into Nu/Nu athymic nude mice (Charles River Laboratories, Wilmington, Mass.). Tumor volume was measured according to the formula ((Width)^2*Length)/2. Tumors were allowed to grow to approximately 200 mm^3 in volume (Day 0), at which point mice were randomized to three groups. Eight mice were grouped to receive SGI-1097 as treatment, and two groups of eight would receive vehicle alone as a negative control. The SGI-1097 compound was formulated in the following vehicle: 10% EtOH; 30% PEG 300; 60% solution of 300 mg/ml 2-Hydroxypropyl-beta-cyclodextrin in water.\nIn the treatment group, each animal received 5 mg/kg of compound 2-5 in the aforementioned vehicle at a volume of 100 μl, dosed IP. The dosing schedule was QDx5 for three weeks. […]\nAnother negative control group was dosed PO with corn oil on the same dosing schedule. The tumor volumes for both the treated and untreated groups were measured twice a week for the three week dosing period, and for one week after the dosing period."}, "[3]": {"conditions": "96 h, Example 20, 4 days, read-out: Cell-based IC50 values TT"}},
  "note": "Like-named read-outs stand apart in the source and are kept apart here.",
  "data": [
    {"smiles": "CC(=O)NS(=O)(=O)c1ccc(NC(=S)N2CCN(c3ncnc4[nH]c5cc(C(F)(F)F)c(Cl)cc5c34)CC2)cc1", "note": "[Compound 1-1, 4-(6-Chloro-7-trifluoromethyl-9H-pyrimido[4,5-b]indol-4-yl)-piperazine-1-carbothioic acid (4-acetylsulfamoyl-phenyl)-amide]", "values": [
      {"measurement": "IC50", "setting": "TT (medullary thyroid); 96 h, Example 18, 4 days, read-out: calculated IC50 TT", "result": 51.7, "unit": "µM"},
      {"measurement": "IC50", "setting": "TT (medullary thyroid); [3]", "result": 11, "unit": "µM"},
      {"measurement": "IC50", "setting": "TT (medullary thyroid); Table 10, 96 hours, read-out: IC50 TT (inhibit cell growth to 50% of untreated)", "result": 51.7, "unit": "µM"},
      {"measurement": "IC50", "setting": "[1]", "result": 7.83, "unit": "µM"}
    ]},
    {"smiles": "COc1cc2[nH]c3ncnc(N4CCN(C(=S)Nc5ccc(S(=O)(=O)NC(C)=O)cc5)CC4)c3c2cc1OC", "note": "[Compound 1-2, 4-(6,7-Dimethoxy-9H-pyrimido[4,5-b]indol-4-yl)-piperazine-1-carbothioic acid (4-acetylsulfamoyl-phenyl)-amide]", "values": [
      {"measurement": "IC50", "setting": "TT (medullary thyroid); [3]", "result": 64, "unit": "µM"}
    ]},
    {"smiles": "CC(=O)NS(=O)(=O)c1ccc(NC(=S)N2CCN(c3ncnc4[nH]c5ccc(Cl)cc5c34)CC2)cc1", "note": "[Compound 1-3, 4-(6-chloro-9H-pyrimido[4,5-b]indol-4-yl)-piperazine-1-carbothioic acid (4-acetylsulfamoyl-phenyl)-amide]", "values": [
      {"measurement": "IC50", "setting": "TT (medullary thyroid); [3]", "result": 13.2, "unit": "µM"}
    ]},
    {"smiles": "COc1cc2[nH]c3ncnc(N4CCN(C(=S)Nc5ccc(NC(=O)C6CC6)cc5)CC4)c3c2cc1OC", "note": "[Compound 1-34]", "values": [
      {"measurement": "IC50", "setting": "TT (medullary thyroid); [3]", "result": 99.1, "unit": "µM"}
    ]},
    {"smiles": "COc1cc2[nH]c3ncnc(N4CCN(C(=S)Nc5ccc(NC(C)=O)cc5)CC4)c3c2cc1OC", "note": "[Compound 1-42]", "values": [
      {"measurement": "IC50", "setting": "TT (medullary thyroid); [3]", "result": 129, "unit": "µM"}
    ]},
    {"smiles": "COc1cc2[nH]c3ncnc(N4CCN(C(=S)Nc5ccc(S(N)(=O)=O)cc5)CC4)c3c2cc1OC", "note": "[Compound 1-107]", "values": [
      {"measurement": "IC50", "setting": "TT (medullary thyroid); [3]", "result": 147, "unit": "µM"}
    ]},
    {"smiles": "COc1cc2[nH]c3ncnc(N4CCN(C(=S)Nc5ccc(S(C)(=O)=O)cc5)CC4)c3c2cc1OC", "note": "[Compound 1-115]", "values": [
      {"measurement": "IC50", "setting": "TT (medullary thyroid); [3]", "result": 38.6, "unit": "µM"}
    ]},
    {"smiles": "COc1cc2[nH]c3ncnc(N4CCN(C(=S)Nc5ccc(S(=O)(=O)Nc6ccc(F)cc6)cc5)CC4)c3c2cc1OC", "note": "[Compound 2-3, 4-(6,7-dimethoxy-9H-pyrimido[4,5-b]indol-4-yl)-N-(4-(N-(4-fluorophenyl)sulfamoyl)phenyl)piperazine-1-carbothioamide]", "values": [
      {"measurement": "tumor growth", "setting": "DU145 carcinoma; Alzet osmotic pump subcutaneous or intravenous, second cycle on day 30", "result": "led to a reduction in tumor growth"},
      {"measurement": "tolerability of repeat dose (weight loss)", "setting": "DU145 carcinoma; repeat dose in mice", "result": "well tolerated"},
      {"measurement": "efficacy by route of administration", "setting": "DU145 carcinoma; subcutaneous versus intravenous", "result": "more effective when administered subcutaneously than intravenously"}
    ]},
    {"smiles": "COc1ccc2c(c1)[nH]c1ncnc(N3CCN(C(=S)Nc4ccc(S(=O)(=O)Nc5ccc(F)cc5)cc4)CC3)c12", "note": "[Compound 2-5, 4-(7-methoxy-9H-pyrimido[4,5-b]indol-4-yl)-N-(4-(N-(4-fluorophenyl)sulfamoyl)phenyl)piperazine-1-carbothioamide]", "values": [
      {"measurement": "toxicity through the duration of the study", "setting": "[2]", "result": "No noticeable toxicity"},
      {"measurement": "tumor growth inhibition in vivo", "setting": "[2]", "result": "effective for inhibiting tumor growth in vivo"}
    ]}
  ]
}
